Reference: patent US9526915B2, “Methods for regulating cell mitosis by inhibiting serine/threonine phosphatase” (priority 2008, dated 2016)
Entries after “also recorded” stand apart in the source; their conditions may differ.

Assays:
NB xenografts = assay: Histologic examination of xenografts 24 hours after single i.p. injection; type: in vivo, SCID mice; details: compound 102 1.5 mg/kg, TMZ 80 mg/kg
U87MG cells = assay: Cellular and molecular changes in U87MG cells (Western blots, IFS); type: cell-based, human
Experimental: D, Western blots of U87 lysates: TCTP, pPlk (Tre-210), total Plk, and β-actin. E, IFS of TCTP in U87 cells, F, Western blots p53 (ser-15), pMDM2 (ser-166), and β-actin and G, IFS of p53 (ser-15).
(§1) 5×10^6 U87MG cells were inoculated s.c. into each flank of 20 SCID mice. When the xenografts were 0.5+/−0.1 cm (day 0), 5 animals each received i.p. vehicle alone days 1-12 (50% DMSO/H20); compound 102 alone at 1.5 mg/kg days 1-3, 5-7, & 9-11; TMZ alone at 80 mg/kg days 4, 8, 12; or both drugs at the same doses and schedules. If xenografts reached 1800 mm^3, animals were sacrificed. […] B, Survival curve combining the data from the study shown in FIG. 12A, with a second identical study involving a total of 10 animals with two xenografts each. Disease-free survival was defined as no recurrence of either xenografts. […] As in 12A, except that xenografts of SH-SY5Y cells were implanted in one flank only and animals were treated with one additional cycle of drugs, i.e., compound 102 on days 13-15, TMZ, on day 16, and compound 102 plus TMZ on the same schedules. […] E, Western blots of U87 cells in culture 24 hours after exposure to compound 102 at 2.5 uM, TMZ at 25 uM or DOX at 2 uM, and compound 102 plus TMZ or DOX. F, Western blots of U373 cells 24 hours after exposure to compound 102 at 2.5 uM, doxorubicin at 2 uM, and both drugs. G, Western blots of U373 cells 24 hours after exposure to TMZ at 25 uM, okadaic acid at 2 nM, and both drugs.
TCTP is an abundant, highly conserved, multifunctional protein that binds to and stabilizes microtubules before and after mitosis and also exerts potent anti-apoptotic activity (Bommer and Thiele, 2004; Yarm, 2002; Susini et al, 2008) (FIG. 11E).
[…] Akt-1 activation, however, may be anti- or proapoptotic depending on the context of cell signaling (Andrabi et al, 2007).
The effects of compound 102, TMZ, doxorubicin (DOX), a widely used anti-cancer drug that disrupts DNA replication, compound 102 plus TMZ, and compound 102 plus DOX on the amount of pAkt, p53 and MDM2 in U87MG, a cell line with wild-type p53, and in U373, a cell line with mutant p53 (Short et al, 2007) were assessed by Western blots.

SH-SY5Y xenografts = assay: SH-SY5Y neuroblastoma s.c. xenografts in SCID mice, compound 102 and TMZ; type: in vivo; details: as U87MG plus one additional cycle; followed 7 weeks
Experimental: 5×10^6 U87MG cells were inoculated s.c. into each flank of 20 SCID mice. When the xenografts were 0.5+/−0.1 cm (day 0), 5 animals each received i.p. vehicle alone days 1-12 (50% DMSO/H20); compound 102 alone at 1.5 mg/kg days 1-3, 5-7, & 9-11; TMZ alone at 80 mg/kg days 4, 8, 12; or both drugs at the same doses and schedules. If xenografts reached 1800 mm^3, animals were sacrificed. […] B, Survival curve combining the data from the study shown in FIG. 12A, with a second identical study involving a total of 10 animals with two xenografts each. Disease-free survival was defined as no recurrence of either xenografts. […] As in 12A, except that xenografts of SH-SY5Y cells were implanted in one flank only and animals were treated with one additional cycle of drugs, i.e., compound 102 on days 13-15, TMZ, on day 16, and compound 102 plus TMZ on the same schedules. […] E, Western blots of U87 cells in culture 24 hours after exposure to compound 102 at 2.5 uM, TMZ at 25 uM or DOX at 2 uM, and compound 102 plus TMZ or DOX. F, Western blots of U373 cells 24 hours after exposure to compound 102 at 2.5 uM, doxorubicin at 2 uM, and both drugs. G, Western blots of U373 cells 24 hours after exposure to TMZ at 25 uM, okadaic acid at 2 nM, and both drugs. […]

PP2A = PP2A (Homo sapiens, UniProt P67775); assay: PP2A activity in U87 xenografts and normal brain after i.p. injection; type: in vivo, SCID mice; set-up: PP2A activity in U87 s.c. xenografts (blue) and in normal brain tissue (yellow) of SCID mice; from tissue; host or cells: U87 s.c. xenografts and normal brain tissue of SCID mice; details: single dose 1.5 mg/kg i.p.
Experimental: PP2A activity in U87 s.c. xenografts (blue) and in normal brain tissue (yellow) of SCID mice at different times after i.p. injection of 1.5 mg/kg compound 102 (one mouse per point; each lysate was measured in triplicate: mean and s.d.)
Recent work led to the discovery that treatment with the compound, compound 100, and several homologs inhibit the serine/threonine protein phosphatases PP2A (FIG. 1). Compound 102 inhibits PP2A (IC50=˜0.4 μM) more potently than PP1 (IC50=˜80 μM) (FIG. 2). Associated with their inhibition of PP2A, Compound 100 and homologs inhibit a variety of human cancer cell types growing in cell culture and growing in vivo as xenografts implanted subcutaneously in SCID mice (FIG. 3 and FIG. 4). […] Death of these cancer cells is associated with profound disruption of microtubular structures. Such patterns of disordered microtubules during mitosis have been noted after exposure of cancer cells to spindle toxins include such vincristine, vinblastine, taxol, taxotere, ionizing radiation, and DNA damaging agents including anthracyclines and the platinum based compounds. The morphologic appearance of cells displaying these characteristics has been called the mitotic catastrophe phenotype (Castedo et al 2004).

U87MG xenografts = assay: U87MG s.c. xenografts in SCID mice, compound 102 and TMZ; type: in vivo
Experimental: as §1
To determine the impact of altering DNA-damage defense mechanisms by inhibiting PP2A on the efficacy of cytotoxic chemotherapy, the effects of compound 102 combined with TMZ, a non-specific DNA-methylating drug, routinely used for the palliative treatment of GBM patients (Prados et al, 2008), were studied. SCID mice bearing s.c. xenografts of either the GBM line U87MG or the neuroblastoma line SH-SY5Y were treated with vehicle alone, compound 102 alone, TMZ alone, or both drugs at the same doses and schedules as when given alone.

[1] = test system: DAOY medulloblastoma cells; assay: DAOY medulloblastoma s.c. xenografts in SCID mice; type: in vivo; details: treatment from day 6, by day 23
Experimental: DAOY medulloblastoma cells were implanted subcutaneously into the flanks of SCID mice. On day 6, mice were divided into 3 groups, one group receiving Compound 100, one group receiving Compound 102, and one group receiving vehicle alone. The subcutaneous tumor masses were measured on day 6, day 13, day 18, and on day 23 when all animals were sacrificed. […] In this model DAOY cells, when untreated, reached their maximum growth about 2 weeks after implantation with slow regression thereafterwards.

U373 cells = assay: Western blots of U373 cells; type: cell-based, human; details: U373 (mutant p53), 24 hours
Experimental: as §1

[2] = U87MG, 24 hours, compound 102 2.5 uM, TMZ 25 uM, DOX 2 uM

Chain of PP2A (P67775 whole entry): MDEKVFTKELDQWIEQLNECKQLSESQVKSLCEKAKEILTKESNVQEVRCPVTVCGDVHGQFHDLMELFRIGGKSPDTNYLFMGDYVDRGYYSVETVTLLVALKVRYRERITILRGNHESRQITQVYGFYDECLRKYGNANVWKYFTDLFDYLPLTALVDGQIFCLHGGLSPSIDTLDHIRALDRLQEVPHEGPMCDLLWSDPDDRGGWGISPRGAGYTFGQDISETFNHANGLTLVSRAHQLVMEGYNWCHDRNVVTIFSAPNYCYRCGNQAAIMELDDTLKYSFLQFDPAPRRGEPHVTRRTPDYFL

Compound: CC(C)(C)OC(=O)N1CCN(C(=O)C2C(C(=O)O)[C@H]3CC[C@@H]2O3)CC1 (stereo partly shown) [Compound 102]
- cells with pyknotic nuclei (NB xenografts): 50 % of cells
- intracellular levels of p53 by immunofluorescence staining (U87MG cells; 24 hour, compound 102 2.5 uM, TMZ 25 uM): reduction
- TCTP (U87MG cells; U87MG, 2.5 uM, 24 hour): marked decrease
- microtubule and mitotic morphology (U87MG cells; U87MG, 2.5 uM, 24 hour): disordered microtubules and abnormal mitotic figures
- pPlk-1 (U87MG cells; U87MG, 2.5 uM, 24 hour): increased
- phosphorylated MDM2 (U87MG cells; U87MG, 2.5 uM, 24 hour): increased
- MDM2 (U87MG cells; [2]): increased
- p53 (U87MG cells; [2]): decreased; also recorded: eliminated
- pAkt-1 (U87MG cells; [2]): increased
- NB (SH-SY5Y) xenograft growth (SH-SY5Y xenografts): completely suppressed growth for 2 weeks; also recorded: no growth until week 3
- PP2A activity in normal brain tissue (PP2A): inhibits PP2A activity
- PP2A activity in s.c. U87 MG xenografts (PP2A): inhibits PP2A activity
- U87MG xenograft growth/regression (U87MG xenografts; compound 102 1.5 mg/kg i.p. days 1-3, 5-7, 9-11, TMZ 80 mg/kg days 4, 8, 12): minimally delayed growth; also recorded: slowed growth
- time of sacrifice (xenografts reached 1800 mm^3) (U87MG xenografts; same doses and schedules): 4-5 week
- DAOY subcutaneous tumor mass [1]: marked regression
- molecular changes in pAkt-1, p53, and MDM2 compared with U87MG (U373 cells): same molecular changes
